What all share (format): cell-based
The test system of experiment [1] is Human CD4+ T cells. As to the kind of experiment: CD4+ T cells chemotaxis assay towards CCL20. The settings on record: CD4+ T cell, 3 h. The source says:
Human CD4+ T cells were isolated from buffy coats of healthy donors using aCD4+ T Cell Isolation Kit(Miltenyi Biotec 130-096-533). Isolated T cells were stimulated overnight with anti-CD3 and anti-CD28 antibodies (Biolegend 300314/302934) in growth medium (RPMI1640, 10% heat-inactivated FBS, 1× pen/strep (Gibco 15140)). For the chemotaxis assay, Corning Transwell plates were used with a pore size of 5 m (Corning 3388). T cells were counted and diluted to 6*10^6 cells/ml in chemotaxis medium (RPMI1640, 1% BSA, pen/strep). Compounds were four-fold serially diluted in DMSO. Further dilutions were made in chemotaxis medium. Cells were incubated with test compounds for 30 min at 37° C. prior to initiation of the assay (3*10^6 cells/ml). Final DMSO concentration in the assay was 0.2%. Wells of the Transwell plates were filled with 200 μl chemotaxis medium containing 150 ng/ml CCL20 (R&D systems 360-MP). 50 μl of the cell/compound suspension was added to the inserts of the Transwell plates (150,000 cells/insert). The Transwell plates were placed in an incubator at 37° C., 5% CO2 for 3 h. After 3 h, the number of migrated cells was quantified using CellTiter Glo (Promega). Percentage inhibition values were calculated based on the low and high signal obtained with 0.2% DMSO in chemotaxis medium without and with CCL20, respectively. The relative Log IC50 was determined with GraphPad Prism 9 using a four-parameter dose-response model.

In experiment [2] the target is T1, human CCR6 (Homo sapiens, UniProt P51684).
T1 sequence (P51684 1-374): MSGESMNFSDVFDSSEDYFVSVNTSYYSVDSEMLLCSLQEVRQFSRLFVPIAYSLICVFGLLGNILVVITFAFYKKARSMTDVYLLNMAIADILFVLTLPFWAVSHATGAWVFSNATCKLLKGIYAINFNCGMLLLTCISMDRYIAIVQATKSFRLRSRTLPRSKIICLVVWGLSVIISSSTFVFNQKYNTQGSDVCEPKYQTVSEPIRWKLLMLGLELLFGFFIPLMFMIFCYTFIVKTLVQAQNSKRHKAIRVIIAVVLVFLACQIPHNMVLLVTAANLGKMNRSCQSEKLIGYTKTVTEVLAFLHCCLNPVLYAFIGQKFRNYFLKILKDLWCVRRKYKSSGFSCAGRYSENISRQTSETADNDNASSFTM
Nature of the experiment: Human CCR6-CRE reporter assay. Details: The second construct contained the open reading frame of human CCR6 in the pUNO1 backbone; host or cells: 293FT cells (transient transfection with TransIT-293). How it is done: 293FT cells were transfected with 2 constructs using TransIT-293 (Mirus). The first construct (pGL4.29, Promega) expressed the luciferase reporter gene luc2P in response to the binding of cAMP-induced CREB to the CREelement in its promoter. The second construct contained the open reading frame of human CCR6 in the pUNO1 backbone under the control of an enhanced CMV promoter(InVivoGen).48 h after transfection, cells were harvested and diluted to 750,000 cells/ml in culture medium (DMEM, 10% FBS, 1× pen/strep(Gibco 15140)). Compounds were 2.5-fold serially diluted in DMSO. Further dilutions were made in assay medium (DMEM, 10% FBS, 1× pen/strep, 6 μM Forskolin, 6 nM CCL20). 4 μl of the compound solution was added to a white MW384 plate, followed by […] of the cell suspension. Final DMSO concentration in the assay was 0.1%. The MW384 plate was placed in an incubator at 37° C., 5% CO2 for 5 h. Luciferase activity was determined by addition of 24 μl of a 2.5× diluted BriteLite luciferase solution(Perkin Elmer), followed by luminescence measurement using a VICTOR Plate reader (Perkin Elmer). […] The relative Log IC50 was determined with GraphPad Prism 9 using a four-parameter dose-response model.

The target in experiment [3] is T1, human CCR6. Nature of the experiment: CHO-K1 CCR6 chemotaxis assay towards CCL20. The note with it: CHO-K1 cells overexpressing human CCR6; 100 ng/ml CCL20, 4 h; relative Log IC50. From the text:
Cells overexpressing human CCR6 were used in the chemotaxis assay (DiscoverX, cAMP Hunter™ CHO-K1 CCR6 Gi Cell Line). Growth medium of these cells consisted of DMEM/F12, non-essential Amino acids (1×NEAA, Gibco 11140050), 10% FBS and 1× pen/strep (Gibco 15140). For the chemotaxis assay, Corning Transwell plates were used with a pore size of 8 m (Corning 351164). Cells were harvested using trypsin and diluted to 4*10^6 cells/ml in chemotaxis medium (DMEM, 0.25% BSA, pen/strep). Compounds were four-fold serially diluted in DMSO. Further dilutions were made in chemotaxis medium. Cells were incubated with test compounds for 30 min at 37° C. prior to initiation of the assay (2*10^6 cells/ml). Final DMSO concentration in the assay was 0.2%. Wells of the Transwell plates were filled with 200 μl chemotaxis medium containing 100 ng/ml CCL20 (R&D systems 360-MP). 50 μl of the cell/compound suspension was added to the inserts of the Transwell plates (100,000 cells/insert). The Transwell plates were placed in an incubator at 37° C., 5% CO2 for 4 h. After 4 h, the number of migrated cells was quantified using CellTiter Glo (Promega). Percentage inhibition values were calculated based on the low and high signal obtained with 0.2% DMSO in chemotaxis medium without and with CCL20, respectively. The relative Log IC50 was determined with GraphPad Prism 9 using a four-parameter dose-response model.

[4] abbreviates: 293FT cells transfected with human CCR6 and CRE-luciferase, Forskolin + CCL20, 5 h, relative Log IC50, read-out: CCR6-CRE reporter (converted).

`N#Cc1ccc(-c2ccc(S(=O)(=O)N3CCC(Nc4ccc(OC(F)(F)F)cc4)CC3)cc2)cc1` [Example 1, 4′-[(4-{[4-(trifluoromethoxy)phenyl]Amino}piperidin-1-yl)sulfonyl]-[1,1′-biphenyl]-4-carbonitrile]: the IC50 in experiment [1] is 50.1 nM; in experiment [2] (setting [4]) it was 39.8 nM.

Consider `Cc1nnc2ccc(-c3ccc(S(=O)(=O)N4CCC(Nc5ccc(SC(F)(F)F)cn5)CC4)cc3)cn12` [Example 67, N-[1-(4-{3-methyl-[1,2,4]triazolo[4,3-a]pyridin-6-yl}benzenesulfonyl)piperidin-4-yl]-5-[(trifluoromethyl)sulfanyl]pyridin-2-amine], for which the IC50 is 12.6 nM in experiment [1] and 39.8 nM in experiment [2] (setting [4]).

Regarding `CC(C)c1nnc2cnc(-c3ccc(S(=O)(=O)N4CCC(Nc5ccc(SC(F)(F)F)cn5)CC4)cc3)cn12` [Example 66, N-(1-{4-[3-(propan-2-yl)-[1,2,4]triazolo[4,3-a]pyrazin-6-yl]benzenesulfonyl}piperidin-4-yl)-5-[(trifluoromethyl)sulfanyl]pyridin-2-amine], the IC50 is 1.58 nM in experiment [1] and 31.6 nM in experiment [2] (setting [4]).

For the compound `Cc1n[nH]c2ccc(-c3ccc(S(=O)(=O)N4CCC(Nc5ccc(OC(F)(F)F)cc5)CC4)cc3)cc12` [Example 6, 1-[4-(3-methyl-1H-indazol-5-yl)benzenesulfonyl]-N-[4-(trifluoromethoxy)phenyl]piperidin-4-amine], the IC50 was 50.1 nM in experiment [1] and 126 nM in experiment [2] (setting [4]).

As to `Cc1n[nH]c2ncc(-c3ccc(S(=O)(=O)[C@H]4CC[C@H](Nc5ccc(SC(F)(F)F)cc5)CC4)cc3)cc12` [Example 72, N-[trans-4-(4-{3-methyl-1H-pyrazolo[3,4-b]pyridin-5-yl}benzenesulfonyl)cyclohexyl]-4-[(trifluoromethyl)sulfanyl]aniline], the IC50 is 3.98 nM in experiment [1] and 39.8 nM in experiment [2] (setting [4]).

Regarding `Cc1cc(-c2ccc(S(=O)(=O)N3CCC(Nc4ccc(SC(F)(F)F)cn4)CC3)cc2)cn2c(C(C)C)nnc12` [Example 68, N-(1-{4-[8-methyl-3-(propan-2-yl)-[1,2,4]triazolo[4,3-a]pyridin-6-yl]benzenesulfonyl}piperidin-4-yl)-5-[(trifluoromethyl)sulfanyl]pyridin-2-amine], the IC50 in experiment [1] is 2 nM; in experiment [2] (setting [4]), 63.1 nM.

On to `O=c1[nH]nc2ccc(-c3ccc(S(=O)(=O)N4CCC(Nc5ccc(SC(F)(F)F)cn5)CC4)cc3)cn12` [Example 74, 6-(4-{[4-({5-[(trifluoromethyl)sulfanyl]pyridin-2-yl}amino)piperidin-1-yl]sulfonyl}phenyl)-2H,3H-[1,2,4]triazolo[4,3-a]pyridin-3-one], for which the IC50 is 12.6 nM in experiment [1] and 79.4 nM in experiment [2] (setting [4]).

As for `N#Cc1n[nH]c2ccc(-c3ccc(S(=O)(=O)N4CCC(Nc5ccc(OC(F)(F)F)cc5)CC4)cc3)cc12` [Example 14, 5-{4-[(4-{[4-(trifluoromethoxy)phenyl]Amino}piperidin-1-yl)sulfonyl]phenyl}-1H-indazole-3-carbonitrile], the IC50 was 20 nM in experiment [3] and 63.1 nM in experiment [2] (setting [4]).

As for `CC(C)c1cnc2ccc(-c3ccc(S(=N)(=O)[C@H]4CC[C@H](Nc5ccc(SC(F)(F)F)cc5)CC4)cc3)cn12` (stereo partly drawn) [Example 51, {4-[3-(propan-2-yl)imidazo[1,2-a]pyridin-6-yl]phenyl}[trans-4-({4-[(trifluoromethyl)sulfanyl]phenyl}Amino)cyclohexyl](imino)-λ^6-sulfanone], the IC50 was 794 nM in experiment [3] and 79.4 nM in experiment [2] (setting [4]).

Consider `N#Cc1c[nH]c2ccc(-c3ccc(S(=O)(=O)[C@H]4CC[C@H](Nc5ccc(SC(F)(F)F)cc5)CC4)cc3)cc12` [Example 44, 5-(4-{[trans-4-({4-[(trifluoromethyl)sulfanyl]phenyl}Amino)cyclohexyl]sulfonyl}phenyl)-1H-indole-3-carbonitrile], for which the IC50 in experiment [3] is 6.31 nM; in experiment [2] (setting [4]), 20 nM.

With `CNC(=O)c1cccc(-c2ccc(S(=O)(=O)N3CCC(Nc4ccc(OC(F)(F)F)cc4)CC3)cc2)c1` [Example 4, N-methyl-4′-[(4-{[4-(trifluoromethoxy)phenyl]Amino}piperidin-1-yl)sulfonyl]-[1,1′-biphenyl]-3-carboxamide], the values for the IC50 in experiment [1] and in experiment [2] (setting [4]) were 20 nM and 100 nM, respectively.

As to `Cc1cnc2ccc(-c3ccc(S(=O)(=O)[C@H]4CC[C@H](Nc5ccc(OC(F)(F)F)cn5)CC4)cc3)cn12` [Example 42, N-[trans-4-(4-{3-methylimidazo[1,2-a]pyridin-6-yl}benzenesulfonyl)cyclohexyl]-5-(trifluoromethoxy)pyridin-2-amine], the results for the IC50 in experiment [3] and in experiment [2] (setting [4]) were 79.4 nM and 158 nM, respectively.

As for `Cc1cnc2ccc(-c3ccc(S(=O)(=O)[C@H]4CC[C@H](Nc5ccc(OC(F)(F)F)cc5)CC4)cc3)cn12` [Example 41, N-[trans-4-(4-{3-methylimidazo[1,2-a]pyridin-6-yl}benzenesulfonyl)cyclohexyl]-4-(trifluoromethoxy)aniline], the IC50 was 63.1 nM in experiment [3] and 158 nM in experiment [2] (setting [4]).

`Cc1cc(-c2ccc(S(=O)(=O)N3CCC(Nc4ccc(OC(F)(F)F)cn4)CC3)cc2)cn2c(C(C)C)cnc12` [Example 55, N-(1-{4-[8-methyl-3-(propan-2-yl)imidazo[1,2-a]pyridin-6-yl]benzenesulfonyl}piperidin-4-yl)-5-(trifluoromethoxy)pyridin-2-amine]: the IC50 in experiment [3] was 2 nM; in experiment [2] (setting [4]) it was 79.4 nM.

Turning to `NC(=O)c1cc(-c2ccc(S(=O)(=O)N3CCC(Nc4ccc(SC(F)(F)F)cn4)CC3)cc2)ccn1` [Example 63, 4-(4-{[4-({5-[(trifluoromethyl)sulfanyl]pyridin-2-yl}amino)piperidin-1-yl]sulfonyl}phenyl)pyridine-2-carboxamide], the IC50 is 15.8 nM in experiment [3] and 74 nM in experiment [2] (scaffold variant X = S, R1 = CF3, read-out: Activity in human CCR6-CRE reporter assay).

In the case of `O=S(=O)(c1ccc(-c2ccc3nccn3c2)cc1)[C@H]1CC[C@H](Nc2ccc(OC(F)(F)F)cc2)CC1` [Example 43, N-[trans-4-(4-{imidazo[1,2-a]pyridin-6-yl}benzenesulfonyl)cyclohexyl]-4-(trifluoromethoxy)aniline], the IC50 in experiment [3] and in experiment [2] (setting [4]) was 79.4 nM throughout.

Source of the values: patent publication US20250353859A1, “COMPOUNDS AS CCR6 INHIBITORS” (Hoffmann-La Roche Inc., priority 2023, published 2025).
